Laboratory results: patent US6352715B1, “Transdermal rate-controlled delivery of Huperzine A for treatment of alzheimer's disease” (priority 1998, dated 2002)

Columns and labels:
[1] = test system: rat embryo hippocampus and cerebellum cultured cells; details: cited from earlier work
patients = details: orally 0.2 mg (4 tablets, b.i.d) for 8 weeks; cited from earlier work
rat cortex = details: cited from earlier work
[2] = Partitioning of Hup A into n-octanol from buffers of different pH; assay type: physicochemical; details: 48 hrs
Protocol: The buffers used to prepare solutions of Hup A for the partitioning study were the same as those used in the solubility studies, i.e., isotonic phosphate buffers with pH 5, 6, 7, 7.4, 8 and 9. Initially, 100 ml of n-octanol was mixed with 100 ml of phosphate buffers and placed in shaking water bath at 37° C. for 24 hours to saturate the n-octanol with buffer prior to study. Then the n-octanol was separated from the buffer using a separating funnel.
Solutions of Hup A (about 150 ug/ml concentration) were prepared separately in each of the six buffers. Then 1 ml each of each buffers was pipetted to three test tube. To these test tubes, 1 ml of the n-octanol was added. Controls were set up consisting only of buffer solutions without n-octanol to account for changes in concentration due to evaporation of buffer or degradation of drug if present. The tubes were sealed and placed in a shaking water bath at 37° C. for 48 hrs. Samples of 100 ul each were taken from both the n-octanol layer and the buffer layer and analyzed by HPLC. Partition coefficients were determined from the ratio of concentration of Hup A in n-octanol to that in buffer.
It appears that at high pH, when Hup A exists predominantly as a neutral moiety, the partition coefficient is high. As the pH is reduced the fraction of the unionized moiety decreases and so does the partition coefficient. At pH 5, when Hup A exists predominantly as a ionized moiety the partition coefficient is below 1, indicating high affinity of the drug for the buffer phase.

[3] = In vitro permeation of Hup A through human cadaver skin from donor solutions (Valia-Chien permeation cell); assay type: in vitro ADME; details: for Permeation arate: receptor pH 7.4; for Permeability × 10^3: values × 10^3
Protocol: Human cadaver skin is employed as model for studying in vitro transdermal permeation of Hup A. The skin specimens of human cadavers, obtained from Ohio Valley Skin & Tissue Center, are mounted between the two half cells of Valia-Chien Permeation Cell. Donor solutions were prepared in isotonic phosphate buffers of pH 5, 6, 7, 7.4, 8 and 9. Concentration of each solution was about 750 ug/ml. Permeation studies were carried out in triplicate at each pH evaluated. The receptor solution used in each case was isotonic phosphate buffer pH 7.4 to simulate physiological conditions.
As stated above human cadaver skin was used in the permeation studies. The skin, obtained frozen, was first thawed and rinsed with in normal saline. The skin was then blotted to remove excess moisture and cut into 2 cm×2 cm pieces. Each skin piece was sandwiched between two microscope glass slides and the thickness was measured using a micrometer. These skin pieces were then mounted between the two half-cell of Valia-Chien permeation cells, with the stratum corneum facing the donor half-cell. The respective donor and receptor solutions were added (3.3 ml each). Samples of 100 ul each were taken from the receptor compartment at various intervals up to 48 hours and were analyzed by HPLC. The volume of receptor compartment was replaced with fresh isotonic phosphate buffer after each sample. At end of 48 hours, a single aliquot was taken from the donor compartment and analyzed after suitable dilution to evaluate the amount of Hup A lost from the donor in 48 hours.
The rate of Hup A permeation is determined based on the general formula for the determination of the rate of permeation of a drug across a membrane as illustrated by the following equation (1): [formula]
Sink conditions were maintained throughout the permeation study i.e. Cd>>Cr. Permeability can be calculated using solubility of Hup A as the saturation concentration in donor cell (Cd). [formula]
Intrinsic permeability was calculated by correlating the permeability with the thickness of the skin:
Wherein P=intrinsic permeability and h=thickness in cm.
Generally speaking, higher the partitioning of the drug into the skin, higher the permeation will be. The pH-dependent partitioning behavior of Hup A is seen to be reflected in its skin permeation profiles. The intrinsic permeability-pH profiles of Hup A (FIG. 5) is similar to that observed for partition coefficient-pH relationship (FIG. 3). Again, a sigmoidal relationship is observed. Further, the amount lost from the donor solution, which corresponds to the sum of the amount permeated and the amount retained in the skin, was also seen to follow similar relationship (FIG. 6).

[4] = Determination of pKa of Hup A by pH titration; assay type: physicochemical; details: 5×10^−4 M in water titrated with HCl
Protocol: A solution of the Hup A was prepared in water to obtain a concentration of 5×10^−4 M solution. Hydrochloric acid solution 0.005M was prepared by dilution of concentrated acid. Similarly, a NaOH solution was prepared by diluting commercially available 1N solution.
For all titration, the procedure used was similar and is described below. The solution to be titrated was taken in a breaker and continually mixed using a magnetic stir bar. A pH electrode was used to measure pH of the solution during the experiments. The pH meter was connected to a computer, which was programmed to automatically obtain pH readings every 10 seconds. […]
First, the HCL solution was standardized by titrating it with standard NaOH solution. This was carried out three times an d end point was determined from the inflection point using the titration profile. […]
The pH titration curve consists of […]: initial gradual decrease in pH as the base is slowly neutralized by the acid; middle region showing slow decrease in pH as excess acid is added to the solution. The pKa of the base is calculated from the initial region. The pH corresponding to midpoint of the initial part of the curve is the approximate pKa of the Hup A. Further, the exact pKa of Hup A was calculated by method described by Albert and Sergeant (1971), which is incorporated herein by reference. […]

[5] = pH/solubility profile in buffers; assay type: physicochemical; details: 37° C., 24 hours
Protocol: In order to conserve the drug quantity being used, single point solubility determinations were carried out. Six different buffers were prepared in to determine the solubility of Hup A. The pH range chosen to study solubility is in 2 units above and 2 units below the pKa of the drug, i.e., 5 to 9. In addition, pH 7.4 was also selected to determine solubility at the physiological pH. To determine solubility, weighed amounts of Hup A were added to six different glass vials. In each vial, 1 ml of the respective buffer was added. The vials were tightly closed and kept in a shaking water bath maintained at 37° C. for 24 hours. At the end of such period, the supernatant solution was filtered through 0.22 um nylon filters into pre-warmed tubes. An aliquot of the filtrate was further diluted and analyzed by HPLC.
It can be seen that at pH 2 units above the pKa, i.e., at pH 9, the solubility of Hup A is the lowest. At low pH, i.e., at pH 5, the solubility of Hup A is seen to be high. This is expected as at pH 5, the drug predominantly exists as an ionized moiety with a single positive charge. These charged ions are hydrophilic and can be easily solubilized by water. At pH 9, the drug predominantly exists as an neutral moiety which is lipophilic, thus the solubility is low. The log of solubility as a function of solution pH is explained by the Henderson-Hasselback equation: […]

[6] = single oral dose of 0.99 mg, six volunteers; cited from earlier work

## C/C=C1\[C@H]2C=C(C)C[C@]1(N)c1ccc(=O)[nH]c1C2 [Hup A, Huperzine A]
[1]
  death of neuronal cell caused by toxic levels of glutamate: decreases the death of neuronal cell
patients
  patients with significant improvement in memory, cognition and behavior: 58%
  side effects: without causing any severe side effects
Rat cortex; rat, in vivo
  permeation through the blood-brain barrier: able to permeate through the blood-brain barrier
Rat cortex; systemic or local administration
  Ach, norepinephrine and dopamine in rat cortex: dose-dependent increase
[2]; n-octanol/buffer pH 6, 37° C.
  Partition Coefficient: 1.681 (0.010)
[2]; n-octanol/buffer pH 7, 37° C.
  Partition Coefficient: 11.376 (0.415)
[2]; n-octanol/buffer pH 7.4, 37° C.
  Partition Coefficient: 18.359 (0.294)
[2]; n-octanol/buffer pH 8, 37° C.
  Partition Coefficient: 24.063 (0.515)
[2]; n-octanol/buffer pH 9, 37° C.
  Partition Coefficient: 27.463 (0.131)
[3]; donor pH 5, about 750 ug/ml
  Permeation arate: 0.776 (0.029) ug/cm^2/hr
[3]; donor pH 5
  Permeability × 10^3: 1.026 (0.038) cm/hr
[3]; donor pH 6, about 750 ug/ml
  Permeation arate: 0.213 (0.088) ug/cm^2/hr
[3]; donor pH 6
  Permeability × 10^3: 0.290 (0.119) cm/hr
[3]; donor pH 7, about 750 ug/ml
  Permeation arate: 0.633 (0.225) ug/cm^2/hr
[3]; donor pH 7
  Permeability × 10^3: 0.846 (0.300) cm/hr
[3]; donor pH 7.4, about 750 ug/ml
  Permeation arate: 0.759 (0.368) ug/cm^2/hr
[3]; donor pH 7.4
  Permeability × 10^3: 1.007 (0.489) cm/hr
[3]; donor pH 8
  Permeability × 10^3: 4.434 (1.7050) cm/hr
[3]; donor pH 9, about 750 ug/ml
  Permeation arate: 5.082 (2.162) ug/cm^2/hr
[3]; donor pH 9
  Permeability × 10^3: 6.118 (2.603) cm/hr
[4]
  pKa: 6.97 (+/−0.06)
[5]; pH 5 buffer
  Solubility: 6.225 (0.153) mg/ml
[5]; pH 6 buffer
  Solubility: 4.639 (0.001) mg/ml
[5]; pH 7 buffer
  Solubility: 2.123 (0.042) mg/ml
[5]; pH 7.4 buffer
  Solubility: 1.325 (0.042) mg/ml
[5]; pH 8 buffer
  Solubility: 1.201 (0.017) mg/ml
[5]; pH 9 buffer
  Solubility: 1.044 (0.018) mg/ml
[6]
  pharmaco-kinetics evaluation: absorbed rapidly, distributed widely in the body, and eliminated at a moderate rate
